“And” between values parts separate entries of the source, which are not always exact repeats. Equal values may be shown once. Read-outs that look alike come from different tables or passages of the source.
Assays:
advanced NSCLC = advanced NSCLC progressed after first-line chemotherapy; cited from earlier work
[1] = Steady-state plasma pharmacokinetics; assay type: in vivo, human
NSCLC = conditions: cited from earlier work
[2] = single-agent enzastaurin 525 mg orally daily; cited from earlier work
metastatic NSCLC = conditions: single agent, second- or third-line; cited from earlier work
[3] = 150 mg erlotinib daily with 250 mg enzastaurin, geometric mean (CV%), n 3
[4] = 150 mg erlotinib daily with 500 mg enzastaurin, geometric mean (CV%), n 11

SMILES: C#Cc1cccc(Nc2ncnc3cc(OCCOC)c(OCCOC)cc23)c1 [erlotinib]
- overall response rate (advanced NSCLC): 6.2%
- C av,ss [1, 3]: 1,030 (19) ng/mL
- CLss/F [1, 3]: 6.07 L/h and 6.07 (19) L/h
- C av,ss [1, 4]: 1,090 (45) ng/mL
- CLss/F [1, 4]: 5.75 L/h and 5.75 (45) L/h
- hazard ratio (overall survival vs placebo) (NSCLC; P < 0.001): 0.70
- response rate (NSCLC; unselected population, vs placebo <1%, P < 0.001): 8.9%
- overall survival (NSCLC; vs placebo 4.7 months): 6.7 months

SMILES: Cn1cc(C2=C(c3cn(C4CCN(Cc5ccccn5)CC4)c4ccccc34)C(=O)NC2=O)c2ccccc21 [Enzastaurin]
- AUCτ,ss [2]: 23,600 nmol × h/L
- CLss/F [2]: 40.3 L/h
- C av,ss ([1]; enzastaurin 500 mg once daily with erlotinib 150 mg daily, geometric mean (CV%), N 12): 750 (71) nmol/L
- Tmax ([1]; human, plasma, oral): 4.04 h
- AUC ([1]; human, plasma, oral, AUCτ,ss, enzastaurin 500 mg once daily with erlotinib 150 mg daily, geometric mean (CV%), N 12): 18 µM·h
- Cmax ([1]; human, plasma, oral, C max,ss, enzastaurin 500 mg once daily with erlotinib 150 mg daily, geometric mean (CV%), N 12): 1600 nM
- patients with prolonged stabilization >6 months (metastatic NSCLC): 11%

From paper PMC3313020 (Cancer Chemotherapy and Pharmacology, 2011)
